# Source: patent publication US6462205B1, “Method of preparing benzofurandione oxime derivatives” (Bayer Aktiengesellscahft, priority 1999, dated 2002)
# Like-named read-outs stand apart in the source and are kept apart here.
# Assay: log p of the isomers of 3-methoximino-2-oxo-2,3-dihydrobenzofuran
# Format: physicochemical
# Settings: product of Example 5, value per isomer
logP (read-out: log p),logP,SMILES
2.2,–,"CON=C1C(=O)Oc2ccccc21 (single isomer, unassigned; isomer 3) [E isomer, 3-Methoximino-2-oxo-2,3-dihydrobenzofuran]"
–,2.14,"CON=C1C(=O)Oc2ccccc21 (single isomer, unassigned; isomer 3) [Z isomer, 3-Methoximino-2-oxo-2,3-dihydrobenzofuran]"
